Key:
USP7-CTD mutant D762A = assay: GST pull-down, USP7-CTD D762A; type: binding, human
Protocol: (§1) Fragments representing USP7-CTD Ubl domains were prepared using ligation independent cloning with In-Fusion (Clontech) in p15TV-L. The boundaries of the Ubl domain constructs are Ubl12 (535–776), Ubl123 (535–889), Ubl345 (776–1102), Ubl45 (886–1102) and USP7-CTD (535–1102). Plasmids expressing USP7-NTD, USP7, and myc-USP7 WT (pCANmycUSP7) were described previously. USP7 mutants E759A, D762A, D764A and D762A/D764A in Ubl123 were synthesized (Genscript) and inserted into the pET15b plasmid. USP7 mutants E759A, D762A, D764A, D762A/D764A and D762R/D764R in USP7-CTD were prepared by ACGT Corporation. The D762R/D764R mutant was then sub-cloned into wild-type pCANmycUSP7 for co-IP assays. The mammalian ICP0 expression construct pCI-110 ICP0 was obtained from Roger Everett.
(§2) The ICP0, GMPS and UHRF1 WT and mutant peptides were cloned into pGEX-2TK and expressed in E. coli BL21(DE3). GST-ICP0 594–775 was obtained from Roger Everett. The GST-ICP0 or GST-GMPS or GST-UHRF1 or GST-ICP0 594–775 cell pellets from 500 ml of LB broth were re-suspended with PBS and lysed using sonication. The cleared lysates were applied to 500 μl of equilibrated glutathione-sepharose beads and incubated with rocking for 60 min at 4°C. Unbound proteins were removed by washing with PBS. Bound proteins were eluted with 50 mM Tris pH 8.0 and 100 mM NaCL containing 30 mM reduced glutathione. Equal amounts (250 μg) of the various USP7 proteins were incubated with 250 μg of the GST-ICP0 or GST-GMPS or GST-UHRF1 or GST-ICP0 594–775 peptides in 50 mM Tris pH 8.0, 100 mM NaCl, 5 mM DTT, 5% glycerol, 0.1 mM Benzamidine and 0.05 mM PMSF, applied to equilibrated glutathione-sepharose beads and incubated overnight with rocking at 4°C. After extensive washing, bound proteins were eluted with 50 mM Tris pH 8.0 and 100 mM NaCl containing 30 mM reduced glutathione.

[1] = test system: USP7-CTD mutant D762R/D764R; assay: GST pull-down, USP7-CTD D762R/D764R; type: binding, human
Protocol: as §1
(§3) The ICP0, GMPS and UHRF1 WT and mutant peptides were cloned into pGEX-2TK and expressed in E. coli BL21(DE3). GST-ICP0 594–775 was obtained from Roger Everett. The GST-ICP0 or GST-GMPS or GST-UHRF1 or GST-ICP0 594–775 cell pellets from 500 ml of LB broth were re-suspended with PBS and lysed using sonication. The cleared lysates were applied to 500 μl of equilibrated glutathione-sepharose beads and incubated with rocking for 60 min at 4°C. Unbound proteins were removed by washing with PBS. Bound proteins were eluted with 50 mM Tris pH 8.0 and 100 mM NaCL containing 30 mM reduced glutathione. […]

[2] = test system: USP7-CTD mutant D762A/D764A; assay: GST pull-down, USP7-CTD D762A/D764A; type: binding, human
Protocol: as §1, §2

Ubl123 mutant D764A = target: T1, Ubl123 mutant D764A (Homo sapiens, UniProt Q93009, D764A); assay: GST pull-down, Ubl123 D764A; type: binding; settings: Fig 3F
T1 construct: Ubl123 (535–889); (vector pET15b); made in house; host or cells: E. coli BL21(DE3)mgk
T1 sequence (Q93009 535-889 D764A): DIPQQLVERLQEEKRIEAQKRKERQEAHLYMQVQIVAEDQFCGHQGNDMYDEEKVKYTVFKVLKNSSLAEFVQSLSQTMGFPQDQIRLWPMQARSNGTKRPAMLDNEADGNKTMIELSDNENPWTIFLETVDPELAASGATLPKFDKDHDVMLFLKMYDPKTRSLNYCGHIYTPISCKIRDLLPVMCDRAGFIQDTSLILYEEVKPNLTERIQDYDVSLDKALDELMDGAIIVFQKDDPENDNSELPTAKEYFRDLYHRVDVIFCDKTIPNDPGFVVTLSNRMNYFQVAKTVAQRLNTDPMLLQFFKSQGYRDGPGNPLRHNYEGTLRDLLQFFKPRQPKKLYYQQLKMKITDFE
Protocol: as §1, §3

USP7 Ubl12 = target: T2, USP7 Ubl12 (Homo sapiens, UniProt Q93009); assay: GST pull-down, Ubl12; type: binding; settings: USP7 domain mapping, Fig 1B/1E, listed as GST-ICP0 615–629
T2 construct: Ubl12 (535–776); His tag (inferred from nickel-NTA purification; vector p15TV-L); made in house; host or cells: E. coli BL21(DE3)mgk
T2 sequence (Q93009 535-776): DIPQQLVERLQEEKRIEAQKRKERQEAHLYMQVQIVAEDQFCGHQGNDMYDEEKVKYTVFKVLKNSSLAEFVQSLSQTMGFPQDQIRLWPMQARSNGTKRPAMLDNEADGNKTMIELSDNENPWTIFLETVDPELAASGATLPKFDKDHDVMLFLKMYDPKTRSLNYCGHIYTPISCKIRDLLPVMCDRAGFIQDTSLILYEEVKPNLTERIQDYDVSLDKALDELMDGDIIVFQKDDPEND
Protocol: as §1, §3

USP7-CTD mutant E759A = assay: GST pull-down, USP7-CTD E759A; type: binding, human
Protocol: as §1, §3

FL-USP7 = assay: GST pull-down, USP7-FL; type: binding, human
Protocol: The USP7 binding region is found within ICP0 residues 594–633 and mutagenesis studies have shown that K620 is essential for the interaction. In order to facilitate crystallization and structure determination, we set out to identify a shorter peptide that is capable of binding to USP7. To this end, a series of overlapping GST-ICP0 fusions (591–605, 595–609, 599–613, 603–617, 607–621, 611–625, 615–629, 619–633) were prepared (see Fig 1A for sequence details) and used in GST pull-down assays. […] Overall, our GST pull-down assays identified ICP0 residues between 619 and 629 as important mediators of USP7 binding in agreement with a previous study.
(§4) Next we determined which region of USP7-CTD interacted with the ICP0 615–629 peptide. FL-USP7, USP7-CTD as well as Ubl12, Ubl123, Ubl345 and Ubl45 (Fig 1B) were used as prey in GST pull-down assays using GST-ICP0 615–629. FL-USP7 and USP7-CTD were used as positive controls while GST alone and USP7-NTD were used as negative controls.
as §2

USP7-CTD mutant D764A = assay: GST pull-down, USP7-CTD D764A; type: binding, human
Protocol: as §1, §3

Ubl123 mutant E759A = target: T3, Ubl123 mutant E759A (Homo sapiens, UniProt Q93009, E759A); assay: GST pull-down, Ubl123 E759A; type: binding; settings: Fig 3F
T3 construct: Ubl123 (535–889); (vector pET15b); made in house; host or cells: E. coli BL21(DE3)mgk
T3 sequence (Q93009 535-889 E759A): as the sequence (Q93009 535-889 D764A) above, with E225A, A230D counted along it
Protocol: as §1, §3

USP7-NTD = assay: GST pull-down, USP7-NTD; type: binding, human; settings: USP7 domain mapping, Fig 1B/1E, listed as GST-ICP0 615–629
Text: as §4, §2

[3] = target: T4, Ubl123 mutant D762A/D764A (Homo sapiens, UniProt Q93009, D762A/D764A); assay: GST pull-down, Ubl123 D762A/D764A; type: binding; settings: Fig 3F
T4 construct: Ubl123 (535–889); (vector pET15b); made in house; host or cells: E. coli BL21(DE3)mgk
T4 sequence (Q93009 535-889 D762A/D764A): as the sequence (Q93009 535-889 D764A) above, with D228A counted along it
Protocol: as §1, §3

USP7 Ubl45 = assay: GST pull-down, Ubl45; type: binding, human; settings: USP7 domain mapping, Fig 1B/1E, listed as GST-ICP0 615–629
Protocol: as §1, §3

Ubl123 mutant D762A = target: T5, Ubl123 mutant D762A (Homo sapiens, UniProt Q93009, D762A); assay: GST pull-down, Ubl123 D762A; type: binding; settings: Fig 3F
T5 construct: Ubl123 (535–889); (vector pET15b); made in house; host or cells: E. coli BL21(DE3)mgk
T5 sequence (Q93009 535-889 D762A): as the sequence (Q93009 535-889 D764A) above, with D228A, A230D counted along it
Protocol: as §1, §3

USP7 Ubl123 = target: T6, USP7 Ubl123 (Homo sapiens, UniProt Q93009); assay: GST pull-down, Ubl123; type: binding; settings: USP7 domain mapping, Fig 1B/1E, listed as GST-ICP0 615–629
T6 construct: Ubl123 (535–889); His tag (inferred from nickel-NTA purification; vector p15TV-L); made in house; host or cells: E. coli BL21(DE3)mgk
T6 sequence (Q93009 535-889): as the sequence (Q93009 535-889 D764A) above, with A230D counted along it
Protocol: as §1, §2

USP7 Ubl345 = assay: GST pull-down, Ubl345; type: binding, human; settings: USP7 domain mapping, Fig 1B/1E, listed as GST-ICP0 615–629
Protocol: as §1, §3

USP7-CTD = target: T7, USP7-CTD (Homo sapiens, UniProt Q93009); assay: GST pull-down, USP7-CTD; type: binding
T7 construct: USP7-CTD (535–1102); His tag (inferred from nickel-NTA purification; vector p15TV-L); made in house; host or cells: E. coli BL21(DE3)mgk
T7 sequence (Q93009 535-1102): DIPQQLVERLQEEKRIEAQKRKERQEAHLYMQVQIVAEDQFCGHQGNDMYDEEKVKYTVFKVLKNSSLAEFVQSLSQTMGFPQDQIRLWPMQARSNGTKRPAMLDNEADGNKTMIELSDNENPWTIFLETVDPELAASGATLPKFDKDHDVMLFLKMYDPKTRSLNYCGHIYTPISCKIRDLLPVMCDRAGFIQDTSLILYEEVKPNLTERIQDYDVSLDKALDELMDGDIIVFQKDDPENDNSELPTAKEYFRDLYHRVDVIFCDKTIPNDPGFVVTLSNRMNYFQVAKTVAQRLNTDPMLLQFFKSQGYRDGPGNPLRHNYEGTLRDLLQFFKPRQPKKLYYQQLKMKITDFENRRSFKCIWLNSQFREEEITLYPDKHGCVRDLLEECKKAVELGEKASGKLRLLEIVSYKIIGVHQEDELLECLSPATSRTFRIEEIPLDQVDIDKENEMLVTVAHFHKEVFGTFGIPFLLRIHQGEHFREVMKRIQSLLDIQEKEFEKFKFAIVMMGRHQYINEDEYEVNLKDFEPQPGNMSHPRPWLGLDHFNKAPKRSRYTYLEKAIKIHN
Protocol: as §1, §2

[4] = test system: myc-tagged D762R/D764R (MRGR) USP7; assay: Co-immunoprecipitation with myc-tagged D762R/D764R (MRGR) USP7 from 293T cells; type: cell-based, human; settings: anti-myc IP, Western blot, Fig 5
Protocol: (§5) 293T cells were grown in Dulbecco’s modified Eagle’s medium (DMEM) (Gibco) with 10% fetal calf serum. 293T cells at 70% confluence in a 10-cm-diameter dish were transfected with 10 μg pCANmycUSP7 expressing WT USP7 or D762R/D764R (MRGR) USP7 or with pcDNA3.1 (negative control), in each case using 20 μl PolyJet (SignaGen Laboratories) transfection reagent. Cells were transferred to a 15-cm-diameter dish 24 h post-transfection and harvested 48 h post-transfection. For experiments on USP7-ICP0 interactions, 293T cells were co-transfected with 1 μg pCANmycUSP7 expressing WT or D762R/D764R (MRGR) USP7 and either 1 μg pCI-110 ICP0 or 1 μg pcDNA3.1. For controls lacking USP7, 1 μg pCI-110 ICP0 was co-transfected with 1 μg pcDNA3.1. In each case 4 μl PolyJet (SignaGen Laboratories) transfection reagent was used.
Protein samples were subjected to SDS-PAGE and transferred to nitrocellulose. Membranes were blocked in 5% skim milk in Tris-buffered saline with 1% Tween (TBS-T) and then incubated with antibodies against ICP0 (H1A027 from Virusys Corporation; 1:5000 dilution), myc (sc-40 from Santa Cruz Biotechnology; 1:5000 dilution), NP95/UHRF1 (A301-470A from Bethyl Laboratories; 1:1000 dilution), GMPS (rabbit serum raised against full-length GMPS [17]; 1:5000 dilution) and actin (MA5-15739 from Pierce; 1:20,000 dilution). After washing, blots were probed with goat anti-mouse or goat anti-rabbit peroxidase (Santa Cruz Biotechnology; 1:5000 dilution) and developed using chemiluminescence reagents (Santa Cruz biotechnology).
293T cells transfected as described above were washed in phosphate-buffered saline (PBS) and lysed on ice for 45 min in a 4x volume of RIPA buffer (50 mM Tris-HCl [pH 8], 150 mM NaCl, 0.1% sodium deoxycholate, 0.5% NP-40) with complete protease inhibitors (Sigma P8340), followed by centrifugation. 1 mg of each clarified lysate was incubated with 1 μg of anti-myc antibody for 1h, followed by incubation with 30 μl of A/G PLUS agarose resin (Santa Cruz Biotechnology) for 2 h at 4°C with end-over-end rotation. The resin was harvested by centrifugation, washed in RIPA buffer, and then boiled in SDS loading buffer. Immunoprecipitated proteins were separated by SDS-PAGE and analyzed by Western blotting, as described above.

293T cells = assay: ICP0 input levels with and without USP7, Western blot, 293T cells; type: cell-based; settings: input levels of ICP0 with and without USP7, Fig 5A
Protocol: as §5
Protein samples were subjected to SDS-PAGE and transferred to nitrocellulose. […]
293T cells transfected as described above were washed in phosphate-buffered saline (PBS) and lysed on ice for 45 min in a 4x volume of RIPA buffer (50 mM Tris-HCl [pH 8], 150 mM NaCl, 0.1% sodium deoxycholate, 0.5% NP-40) with complete protease inhibitors (Sigma P8340), followed by centrifugation. […] Immunoprecipitated proteins were separated by SDS-PAGE and analyzed by Western blotting, as described above.

[5] = GST pull-down, USP7 domain mapping, Fig 1B/1E, listed as GST-ICP0 615–629

Row | Substance | Binding to USP7-CTD mutant D762A (USP7-CTD mutant D762A) | Binding to USP7-CTD mutant D762R/D764R [1] | Binding to USP7-CTD mutant D762A/D764A [2] | Binding to Ubl123 mutant D764A (Ubl123 mutant D764A) | Interaction with ICP0 615-629: Ubl12 (USP7 Ubl12) | Binding to USP7-CTD mutant E759A (USP7-CTD mutant E759A) | Interaction with USP7-FL (overlapping GST-ICP0 peptides) (FL-USP7; GST fusions 250 μg + USP7 250 μg, 50 mM Tris pH 8.0, 100 mM NaCl, 5 mM DTT, 5% glycerol, overnight 4°C, Coomassie stained gel, Fig 1A/1C, symbols not defined) | Interaction with ICP0 615-629: USP7-FL (FL-USP7; [5]) | Binding to USP7-CTD mutant D764A (USP7-CTD mutant D764A) | Binding to Ubl123 mutant E759A (Ubl123 mutant E759A) | Interaction with ICP0 615-629: USP7-NTD (USP7-NTD) | Binding to Ubl123 mutant D762A/D764A [3] | Interaction with ICP0 615-629: Ubl45 (USP7 Ubl45) | Binding to Ubl123 mutant D762A (Ubl123 mutant D762A) | Interaction with ICP0 615-629: Ubl123 (USP7 Ubl123) | Interaction with ICP0 615-629: Ubl345 (USP7 Ubl345) | Interaction with USP7-CTD (overlapping GST-ICP0 peptides) (USP7-CTD; GST fusions 250 μg + USP7-CTD 250 μg, 50 mM Tris pH 8.0, 100 mM NaCl, 5 mM DTT, 5% glycerol, overnight 4°C, Coomassie stained gel, Fig 1A/1D, symbols not defined) | Interaction with ICP0 615-629: USP7-CTD (USP7-CTD; [5]) | recovery with D762R/D764R USP7 (co-IP), in words [4] | effect of WT USP7 and D762R/D764R mutant on ICP0 level (293T cells)
1 | TGKGKWKR [UHRF1 peptide, UHRF1 peptide with KxxxK motif, residues 642–649] | disrupted | disrupted | disrupted | – | – | – | – | – | – | – | – | – | – | – | – | – | – | – | – | –
2 | PRGPRKCARKTRHAE [ICP0 615–629, GST-ICP0 fusion of ICP0 residues 615–629] | Binding was abolished | – | Binding was abolished | Binding was abolished | interacted | Binding was abolished | strongest interaction | FL-USP7 as well as USP7-CTD but not USP7-NTD or GST alone interacted | Binding was abolished | Binding was abolished | not USP7-NTD | Binding was abolished | no interaction | Binding was abolished | interacted | no interaction | strongest interaction | FL-USP7 as well as USP7-CTD but not USP7-NTD or GST alone interacted | – | –
3 | ICP0: Herpes simplex virus-1 immediate-early protein ICP0, expressed in 293T cells | – | – | – | – | – | – | – | – | – | – | – | – | – | – | – | – | – | – | decreased (2-fold in multiple experiments) but not abrogated | stabilizing effect on ICP0

— article PMC4457826 (PLoS Pathogens, 2015)
